The values below come from PubChem BioAssay AID1259407 (Chemical Carcinogenesis Research Information System (CCRIS), 2018).

This series has as its system CCRIS mutagenicity, Ames/micronucleus/aberration tests. Kind of series: CCRIS mutagenicity studies. The following applies: Test System: AMES SALMONELLA TYPHIMURIUM
Where [1] appears, read: Strain/Indicator: TA100, Metabolic Activation: NONE, Method: PREINCUBATION
Where [2] appears, read: Strain/Indicator: TA98, Metabolic Activation: HAMSTER, LIVER, S-9, AROCLOR 1254 (10%), Method: PREINCUBATION
Setting [3] is: Strain/Indicator: TA98, Metabolic Activation: NONE, Method: PREINCUBATION
Where [4] appears, read: Strain/Indicator: TA98, Metabolic Activation: RAT, LIVER, S-9, AROCLOR 1254 (10%), Method: PREINCUBATION
Setting [5] is: Strain/Indicator: TA100, Metabolic Activation: HAMSTER, LIVER, S-9, AROCLOR 1254 (10%), Method: PREINCUBATION
[6] abbreviates: Strain/Indicator: TA100, Metabolic Activation: RAT, LIVER, S-9, AROCLOR 1254 (10%), Method: PREINCUBATION
Setting [7] is: Strain/Indicator: TA1535, Metabolic Activation: HAMSTER, LIVER, S-9, AROCLOR 1254 (10%), Method: PREINCUBATION
The mark [8] stands for this setting: Strain/Indicator: TA1535, Metabolic Activation: NONE, Method: PREINCUBATION
[9] abbreviates: Strain/Indicator: TA1535, Metabolic Activation: RAT, LIVER, S-9, AROCLOR 1254 (10%), Method: PREINCUBATION
The mark [10] stands for this setting: Strain/Indicator: TA1537, Metabolic Activation: NONE, Method: PREINCUBATION
[11] abbreviates: Strain/Indicator: TA97, Metabolic Activation: NONE, Method: PREINCUBATION

Active and inactive are the calls of the source. How the calls were made is not given here.

For the molecule `Cc1cc(=O)oc2c3c(ccc12)C1(C)OOC1(C)O3` (configuration not stated), under setting [1], the mutagenic call was “active; positive”.
As to `N[C@H](Cc1ccccc1)C(=O)O`, the mutagenic call under setting [2] is “inactive; negative”; the mutagenic call under setting [3] was “inactive; negative”; the mutagenic call under setting [4] was “inactive; negative”; the mutagenic call under setting [5] was “inactive; negative”; the mutagenic call under setting [1] is “inactive; negative”; the mutagenic call under setting [6] was “inactive; negative”. Also, the mutagenic call by setting is: under setting [7], “inactive; negative”; under setting [8], “inactive; negative”; under setting [9], “inactive; negative”; (Strain/Indicator: TA1537, Metabolic Activation: HAMSTER, LIVER, S-9, AROCLOR 1254 (10%), Method: PREINCUBATION) “inactive; negative”; under setting [10], “inactive; negative”; (Strain/Indicator: TA1537, Metabolic Activation: RAT, LIVER, S-9, AROCLOR 1254 (10%), Method: PREINCUBATION) “inactive; negative”.
For `Oc1cccc(Nc2ccccc2)c1`, the mutagenic call by setting is: (Strain/Indicator: TA97, Metabolic Activation: HAMSTER, LIVER, S-9, AROCLOR 1254 (10%), Method: PREINCUBATION) “inactive; negative”; (Strain/Indicator: TA97, Metabolic Activation: HAMSTER, LIVER, S-9, AROCLOR 1254 (30%), Method: PREINCUBATION) “inactive; negative”; under setting [11], “inactive; negative”; (Strain/Indicator: TA97, Metabolic Activation: RAT, LIVER, S-9, AROCLOR 1254 (10%), Method: PREINCUBATION) “inactive; negative”; (Strain/Indicator: TA97, Metabolic Activation: RAT, LIVER, S-9, AROCLOR 1254 (30%), Method: PREINCUBATION) “inactive; negative”; under setting [2], “inactive; negative”. The mutagenic call reads like this: (Strain/Indicator: TA98, Metabolic Activation: HAMSTER, LIVER, S-9, AROCLOR 1254 (30%), Method: PREINCUBATION) “inactive; negative”; under setting [3], “inactive; negative”; under setting [4], “inactive; negative”; (Strain/Indicator: TA98, Metabolic Activation: RAT, LIVER, S-9, AROCLOR 1254 (30%), Method: PREINCUBATION) “inactive; negative”; under setting [5], “inactive; negative”; (Strain/Indicator: TA100, Metabolic Activation: HAMSTER, LIVER, S-9, AROCLOR 1254 (30%), Method: PREINCUBATION) “inactive; negative”. Moreover, the mutagenic call reads like this: under setting [1], “inactive; negative”; under setting [6], “inactive; negative”; (Strain/Indicator: TA100, Metabolic Activation: RAT, LIVER, S-9, AROCLOR 1254 (30%), Method: PREINCUBATION) “inactive; negative”; under setting [7], “inactive; negative”; (Strain/Indicator: TA1535, Metabolic Activation: HAMSTER, LIVER, S-9, AROCLOR 1254 (30%), Method: PREINCUBATION) “inactive; negative”; under setting [8], “inactive; negative”. Further, the mutagenic call reads like this: under setting [9], “inactive; negative”; (Strain/Indicator: TA1535, Metabolic Activation: RAT, LIVER, S-9, AROCLOR 1254 (30%), Method: PREINCUBATION) “inactive; negative”.
Regarding `O=C1C=CC(=O)c2c(O)ccc(O)c21`, the mutagenic call is “active; positive” under setting [11]; “active; positive” (Strain/Indicator: TA97, Metabolic Activation: RAT, LIVER, S-9, PHENOBARBITAL AND 5,6-BENZOFLAVONE, Method: PREINCUBATION); “inactive; negative” under setting [3]; “inactive; negative” (Strain/Indicator: TA98, Metabolic Activation: RAT, LIVER, S-9, PHENOBARBITAL AND 5,6-BENZOFLAVONE, Method: PREINCUBATION); “active; positive” under setting [1]; “active; positive” (Strain/Indicator: TA100, Metabolic Activation: RAT, LIVER, S-9, PHENOBARBITAL AND 5,6-BENZOFLAVONE, Method: PREINCUBATION). In addition, the mutagenic call is “active; positive” (Strain/Indicator: TA102, Metabolic Activation: NONE, Method: PREINCUBATION); “active; positive” (Strain/Indicator: TA102, Metabolic Activation: RAT, LIVER, S-9, PHENOBARBITAL AND 5,6-BENZOFLAVONE, Method: PREINCUBATION); “active; positive” (Strain/Indicator: TA104, Metabolic Activation: NONE, Method: PREINCUBATION); “active; positive” (Strain/Indicator: TA104, Metabolic Activation: RAT, LIVER, S-9, PHENOBARBITAL AND 5,6-BENZOFLAVONE, Method: PREINCUBATION); “inactive; negative” under setting [8]; “inactive; negative” (Strain/Indicator: TA1535, Metabolic Activation: RAT, LIVER, S-9, PHENOBARBITAL AND 5,6-BENZOFLAVONE, Method: PREINCUBATION). Besides, the mutagenic call under setting [10] was “inactive; negative”; the mutagenic call (Strain/Indicator: TA1537, Metabolic Activation: RAT, LIVER, S-9, PHENOBARBITAL AND 5,6-BENZOFLAVONE, Method: PREINCUBATION) is “active; positive”; the mutagenic call (Strain/Indicator: TA1538, Metabolic Activation: NONE, Method: PREINCUBATION) was “inactive; negative”; the mutagenic call (Strain/Indicator: TA1538, Metabolic Activation: RAT, LIVER, S-9, PHENOBARBITAL AND 5,6-BENZOFLAVONE, Method: PREINCUBATION) was “inactive; negative”; the mutagenic call (Strain/Indicator: TA2637, Metabolic Activation: NONE, Method: PREINCUBATION) is “active; positive”; the mutagenic call (Strain/Indicator: TA2637, Metabolic Activation: RAT, LIVER, S-9, PHENOBARBITAL AND 5,6-BENZOFLAVONE, Method: PREINCUBATION) is “active; positive”.
With `CN(C)c1ccc(N=Nc2cccc(CCl)c2)cc1`, the mutagenic call is, setting by setting: (Strain/Indicator: TA98, Metabolic Activation: RAT, LIVER, S-9, POLYCHLORINATED BIPHENYLS, Method: PREINCUBATION) “active; positive”; (Strain/Indicator: TA100, Metabolic Activation: RAT, LIVER, S-9, POLYCHLORINATED BIPHENYLS, Method: PREINCUBATION) “active; positive”.
In the case of `C[C@H](CCC(=O)O)[C@H]1CC[C@H]2[C@@H]3CC[C@@H]4C[C@H](O)CC[C@]4(C)[C@H]3C[C@H](O)[C@]12C`, the mutagenic call was “inactive; negative” under setting [3]; “inactive; negative” (Strain/Indicator: TA98, Method: PREINCUBATION); “inactive; negative” (Strain/Indicator: TA100, Metabolic Activation: NONE, Method: STANDARD PLATE); “inactive; negative” (Strain/Indicator: TA100, Metabolic Activation: RAT, LIVER, S-9, AROCLOR 1254, Method: STANDARD PLATE).
